Assay results: patent US11377423B2, “Inhibitors of histone deacetylase” (The Broad Institute, Inc., priority 2012, dated 2022)

Target: HDAC7 (Homo sapiens (Human), UniProt Q8WUI4)
Experiment: Caliper HDAC enzymatic endpoint assay, HDAC7
Assay type: biochemical
Conditions: Table 2C; read-out: HDAC7 IC50 after 0 hr preincubation

HDAC7, sequence (Q8WUI4 whole entry): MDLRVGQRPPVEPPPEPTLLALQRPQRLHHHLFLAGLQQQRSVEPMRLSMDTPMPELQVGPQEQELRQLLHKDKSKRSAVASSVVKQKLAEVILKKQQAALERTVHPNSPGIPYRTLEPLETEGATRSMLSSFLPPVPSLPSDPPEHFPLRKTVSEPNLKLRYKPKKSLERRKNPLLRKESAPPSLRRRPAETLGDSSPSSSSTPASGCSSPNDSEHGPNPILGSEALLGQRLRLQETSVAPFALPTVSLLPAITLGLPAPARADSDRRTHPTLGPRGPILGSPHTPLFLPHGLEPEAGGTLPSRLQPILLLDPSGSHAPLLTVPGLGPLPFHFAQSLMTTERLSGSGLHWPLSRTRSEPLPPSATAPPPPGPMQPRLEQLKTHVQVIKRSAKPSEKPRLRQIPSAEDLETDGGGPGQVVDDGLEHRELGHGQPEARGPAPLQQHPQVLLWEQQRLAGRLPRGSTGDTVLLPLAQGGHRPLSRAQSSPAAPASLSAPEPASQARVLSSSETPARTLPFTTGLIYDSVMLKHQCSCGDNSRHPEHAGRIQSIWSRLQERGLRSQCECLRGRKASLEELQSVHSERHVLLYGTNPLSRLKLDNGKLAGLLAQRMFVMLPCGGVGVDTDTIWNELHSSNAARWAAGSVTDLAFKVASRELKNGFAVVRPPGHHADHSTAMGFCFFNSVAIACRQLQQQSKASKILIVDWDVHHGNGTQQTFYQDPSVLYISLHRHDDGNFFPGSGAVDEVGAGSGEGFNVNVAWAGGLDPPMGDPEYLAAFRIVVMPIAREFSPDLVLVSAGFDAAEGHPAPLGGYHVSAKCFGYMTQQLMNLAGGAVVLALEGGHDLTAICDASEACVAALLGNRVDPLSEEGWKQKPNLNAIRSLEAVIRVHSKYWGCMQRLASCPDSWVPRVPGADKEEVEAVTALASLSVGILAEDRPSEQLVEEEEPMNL

- IC50: > 33 µM
Structure (SMILES): CC(=O)Nc1ccc(C(=O)Nc2ccc(F)cc2N)cc1 [Compound 1, 4-acetamido-N-(2-amino-4-fluorophenyl)benzamide]
